Laboratory results published in patent US6410790B1, “3-amin3-arylpropan-1-ol compounds, their preparation and use” (priority 1999, dated 2002).

Key:
[1] = test system: phenylquinone-induced writhing reaction; experiment: phenylquinone-induced writhing test in mice; format: in vivo; settings: Mus musculus, iv, 10 min, male NMRI mice, 10 mg/kg intravenously, phenylquinone i.p. 10 minutes later
Procedure, shortened: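 Male NMRI mice (25–30 g, n=10/group) received test substance i.v. at 10 mg/kg, then 0.02% phenylquinone i.p. 10 min later. Writhing reactions were counted 5–20 min after phenylquinone; % inhibition is relative to saline-treated controls.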

NA transporter = target: T1, NA transporter (Rattus norvegicus, UniProt Q63380); experiment: synaptosomal noradrenaline uptake inhibition (NA uptake inhibition); format: biochemical; settings: read-out: NA Uptake Inhibition at 1 μM, 1 μM in the assay, synaptosomes from rat hypothalamus
T1 construct: synaptosomes are isolated fresh from rat brains; from tissue; host or cells: rat hypothalamus synaptosomes (P2 fraction)
Procedure, shortened: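 IC50 values converted to Ki via Cheng-Prusoff; Km by Lineweaver-Burk. N=4 independent series, each in triplicate, mean ± SEM.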

[2] = test system: phenylalkylamine binding site of the L-type calcium channel; experiment: Verapamil binding, L calcium channel; settings: 10 μM, percentage inhibition, N-methyl-[3H]-verapamil 2 nM
Experimental: Binding Investigations in the L Calcium Channel
Phenylalkylamine Binding Site (Verapamil Binding)
The biological material (ion channel particles) was prepared on the basis of the publication of Reynolds, Gould and Snyder (I. J. Reynolds, R. J. Gould and S. H. Snyder (1983) […]. 95, 319-321).
N-methyl-[^3H]-verapamil (2 nM in the assay) was used as radioligand. The radioactivity that is measured in the presence of non-radioactive verapamil (10^−4 M in the assay) is defined as non-specific binding. The material was incubated at 25° C. for 45 minutes. The material was then filtered using a Whatman GF/B filter, followed by washing. The radioactivity remaining on the filter (ion channel binding) was measured using a β-counter.
For this purpose IC50 values are obtained, which can be converted to inhibitor constants (Ki) according to the “Cheng-Prusoff equation” (Y. C. Clieng and W. H. Prusoff (1973) Biochem. Pharmacol. 22, 3099-3108). The IC50 values were obtained by means of the computer program “Figure P” (version 6.0, Biosoft, Cambridge, England). Km values were calculated according to Lineweaver and Burk (H. Lineweaver and D. Burk (1934) J. Am. Chem. Soc. 56, 658-666). The “Ligand” computer program (version 4, Biosoft, England) was used to obtain Ken values.

[3] = test system: benzothiazepine binding site of the L-type calcium channel; experiment: Diltiazem binding, L calcium channel; set-up: species or system rat; settings: 10 μM, percentage inhibition, [3H]-cis-(+)-diltiazem 5 nM, rat cerebral cortex membranes
Procedure, shortened: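 Rat cerebral cortex membranes incubated with [^3H]-cis-(+)-diltiazem (5 nM) for 20 min at 25° C; nonspecific binding defined with (±)-diltiazem (10^−6 M). Bound ligand collected by GF/B filtration and counted; IC50 values converted to Ki by Cheng-Prusoff.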

[4] = test system: binding site 2 of the sodium channel; experiment: BTX binding, sodium channel; settings: 10 μM, percentage inhibition, [3H]-batrachotoxin A20 α-benzoate 10 nM, rat cerebral cortex synaptosomes
Procedure, shortened: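 Rat cerebral cortex synaptosomes incubated with 10 nM [^3H]-batrachotoxin A20 α-benzoate at 37° C for 120 min; non-specific binding defined with 0.3 mM veratridine. IC50 values converted to Ki via Cheng-Prusoff; means±SEM of 3 independent series run in triplicate.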

T1 sequence (Q63380 1-617): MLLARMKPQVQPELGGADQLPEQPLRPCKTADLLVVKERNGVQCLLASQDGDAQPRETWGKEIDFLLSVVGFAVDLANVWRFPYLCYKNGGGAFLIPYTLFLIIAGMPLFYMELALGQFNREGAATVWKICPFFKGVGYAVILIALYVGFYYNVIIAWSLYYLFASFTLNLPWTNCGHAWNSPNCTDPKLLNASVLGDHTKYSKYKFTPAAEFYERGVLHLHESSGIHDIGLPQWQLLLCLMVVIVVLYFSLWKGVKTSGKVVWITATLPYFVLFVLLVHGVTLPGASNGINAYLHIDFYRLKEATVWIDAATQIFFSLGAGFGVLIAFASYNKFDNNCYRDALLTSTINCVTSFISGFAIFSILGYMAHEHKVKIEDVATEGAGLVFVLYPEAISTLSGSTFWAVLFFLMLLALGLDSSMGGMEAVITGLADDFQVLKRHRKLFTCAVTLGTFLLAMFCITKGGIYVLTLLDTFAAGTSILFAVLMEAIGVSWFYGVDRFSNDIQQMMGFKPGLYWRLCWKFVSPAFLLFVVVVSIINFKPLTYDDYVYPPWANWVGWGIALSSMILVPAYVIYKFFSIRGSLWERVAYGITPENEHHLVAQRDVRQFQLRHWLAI

SMILES | inhibition in vivo at 10 mg/kg [1] [%] | inhibition at 1 µM (NA transporter) [%] | Verapamil Binding at 10 μM [2] [%] | Diltiazem Binding at 10 μM [3] [%] | BTX Binding at 10 μM [4] [%] | melting point [°C]
Cc1ccc(C2(O)CCCCC2C(c2ccccc2)N(C)C)cc1.Cl (stereo not shown) [Example 8, 2-(dimethylaminophenylmethyl)-1-p-tolylcyclohexanol, hydrochloride] | 81 | 50 | 56 | 68 | 88 | 168 to 169
CN(C)C(c1ccccc1)C1CCCCC1(O)c1ccc(F)c(C(F)(F)F)c1.Cl (stereo not shown) [Example 15, 2-(dimethylaminophenylmethyl)-1-(4-fluoro-3-trifluoromethylphenyl)cyclohexanol, hydrochloride] | 73 | 44 | 87 | 97 | 94 | 234 to 237
CN(C)C(c1ccccc1)C1CCCCC1(O)Cc1ccc(C(C)(C)C)cc1.Cl (stereo not shown) [Example 28, 1-(4-tert.-butylbenzyl)-2-(dimethylaminophenylmethyl)cyclohexanol, hydrochloride] | 100 | 63 | – | 89 | 100 | 227 to 229
CN(C)C(c1ccccc1)C1CCCCC1(O)Cc1cccc(F)c1.Cl (stereo not shown) [Example 29, 2-(dimethylaminophenylmethyl)-1-(3-fluorobenzyl)cyclohexanol, hydrochloride] | 96 | 96 | – | 72 | 88 | 146 to 147
